Experimental data as given in ChEMBL document CHEMBL1201862, “PubChem BioAssay data set” (2004).
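Dose response: 5 concentrations. Exposure: 48 h. Format: 96-well plates. Endpoint: linear interpolation; highest concentration if not reached. GI50 = concentration required for 50% inhibition of growth.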 Activity calls are given as the source filed them. Rule as the data show it: active = GI50 up to about 1.1 µM and inactive = higher. Square brackets hold non-standard residues; d marks the D form. Peptide text beside a SMILES is read from it. * marks the point of attachment. NMeV = CN[C@H](C(=O)O)C(C)C; X28 = COc1ccc(CN*)c(OC)c1; Octanoyl = CCCCCCCC(=O)*; dNMeA = CN[C@H](C)C(=O)O

Columns and labels:
Assay in all cases: growth of human tumour cells (NCI), 48 h
NCI-H522 = system: NCI-H522
A549 = system: A549
MDA-N = system: MDA-N
ACHN = system: ACHN
NCI-H460 = system: NCI-H460
SK-MEL-5 = system: SK-MEL-5
UACC-257 = system: UACC-257
MDA-MB-435 = system: MDA-MB-435
K562 = system: K562
RXF 393 = system: RXF 393
RPMI-8226 = system: RPMI-8226
CAKI-1 = system: CAKI-1
MDA-MB-231 = system: MDA-MB-231
786-0 = system: 786-0
BT-549 = system: BT-549
NCI/ADR-RES = system: NCI/ADR-RES
OVCAR-3 = system: OVCAR-3
SNB-75 = system: SNB-75
DU-145 = system: DU-145
HOP-92 = system: HOP-92

Structure (SMILES)	GI50 (NCI-H522)	GI50 (A549)	GI50 (MDA-N)	GI50 (ACHN)	GI50 (NCI-H460)	GI50 (SK-MEL-5)	GI50 (UACC-257)	GI50 (MDA-MB-435)	GI50 (K562)	GI50 (RXF 393)	GI50 (RPMI-8226)	GI50 (CAKI-1)	GI50 (MDA-MB-231)	GI50 (786-0)	GI50 (BT-549)	GI50 (NCI/ADR-RES)	GI50 (OVCAR-3)	GI50 (SNB-75)	GI50 (DU-145)	GI50 (HOP-92)
Cc1cc(S(=O)(=O)O)c(NC(=O)c2oc3cc(O)ccc3c(=O)c2C)cc1Cl	> 100 µM (inactive)	> 100 µM (inactive)	> 100 µM (inactive)	> 100 µM (inactive)	> 100 µM (inactive)	> 100 µM (inactive)	> 100 µM (inactive)	> 100 µM (inactive)	> 100 µM (inactive)	> 100 µM (inactive)	> 100 µM (inactive)	> 100 µM (inactive)	> 100 µM (inactive)	> 100 µM (inactive)	> 100 µM (inactive)	> 100 µM (inactive)	> 100 µM (inactive)	> 100 µM (inactive)		
CCOC(=O)Cn1nc2ccc(Nc3nc4ccccc4nc3C(=O)OCC)cc2n1	57 µM (inactive)	> 100 µM (inactive)	> 100 µM (inactive)	> 100 µM (inactive)	> 100 µM (inactive)	> 100 µM (inactive)	> 100 µM (inactive)	> 100 µM (inactive)	> 100 µM (inactive)	23.6 µM (inactive)	> 100 µM (inactive)	> 100 µM (inactive)		33.4 µM (inactive)	> 100 µM (inactive)	54.6 µM (inactive)	63.4 µM (inactive)	16.8 µM (inactive)	> 100 µM (inactive)	31.1 µM (inactive)
N#CC(C#N)=c1c2ccccc2c(=C(C#N)C#N)c2ccccc12		31 µM (inactive)	18.7 µM (inactive)	20 µM (inactive)	42.2 µM (inactive)	16.7 µM (inactive)	23.1 µM (inactive)	18.4 µM (inactive)	19.9 µM (inactive)		23.6 µM (inactive)	14.9 µM (inactive)	16.4 µM (inactive)	14.9 µM (inactive)	23 µM (inactive)	25.6 µM (inactive)	16.3 µM (inactive)	18.1 µM (inactive)		32.9 µM (inactive)
Cc1ccc(C)n2c1nc1ccccc12		33 µM (inactive)	> 100 µM (inactive)	> 100 µM (inactive)	25.5 µM (inactive)	82.8 µM (inactive)	> 100 µM (inactive)	> 100 µM (inactive)	> 100 µM (inactive)	96.4 µM (inactive)	> 100 µM (inactive)			> 100 µM (inactive)	> 100 µM (inactive)	> 100 µM (inactive)	> 100 µM (inactive)	24.9 µM (inactive)	> 100 µM (inactive)	> 100 µM (inactive)
O=C1c2ccsc2C(=O)c2sc(CO)cc21	0.106 µM (active)	0.0507 µM (active)	< 0.0133 µM (active)	0.0681 µM (active)	1.47 µM (inactive)	< 0.0118 µM (active)	0.0456 µM (active)	< 0.0132 µM (active)	0.237 µM (active)	1.09 µM (active)	0.22 µM (active)	6.47 µM (inactive)	0.159 µM (active)	0.385 µM (active)	0.0182 µM (active)	0.0845 µM (active)	1.59 µM (inactive)	0.0564 µM (active)		0.333 µM (active)
CCCCCCCC(=O)N[C@H](C(=O)N[C@H](C(=O)N(C)[C@H](C(=O)N1CCC[C@H]1C(=O)N(C)[C@H](C)C(=O)NCc1ccc(OC)cc1OC)C(C)C)C(C)C)C(C)C (Octanoyl-VV[NMeV]P[dNMeA]-X28)	7.21 µM (inactive)	6.55 µM (inactive)		5.26 µM (inactive)	8.34 µM (inactive)	3.3 µM (inactive)	5.21 µM (inactive)	5.22 µM (inactive)	5.62 µM (inactive)	8.57 µM (inactive)	3.02 µM (inactive)	16.4 µM (inactive)	10.5 µM (inactive)	23.2 µM (inactive)	11.8 µM (inactive)	42.1 µM (inactive)	4.2 µM (inactive)	21.3 µM (inactive)	25.3 µM (inactive)	7.6 µM (inactive)
